One assay addresses Histone deacetylase. The experiment in a line: Inhibition of HDAC (unknown origin). Format: protein assay, Homo sapiens.
The target of the next assay is Histone deacetylase 1 (Homo sapiens, UniProt Q13547). The experiment in a line: Inhibition of HDAC1 (unknown origin).
A further assay deals with MDA-MB-231. The experiment in a line: Antiproliferative activity against human MDA-MB-231 cells.
For a further assay, the system named is HepG2. The experiment in a line: Antiproliferative activity against human HepG2 cells. Format: functional, cell-based.
A further assay concerns Jurkat. The experiment in a line: Antiproliferative activity against human Jurkat cells. Format: functional, cell-based.
The target of assay [1] is Tyrosine-protein kinase JAK2 (Homo sapiens, UniProt O60674). The experiment in a line: Inhibition of JAK2 (unknown origin).
Sequence of Tyrosine-protein kinase JAK2 (O60674 whole entry): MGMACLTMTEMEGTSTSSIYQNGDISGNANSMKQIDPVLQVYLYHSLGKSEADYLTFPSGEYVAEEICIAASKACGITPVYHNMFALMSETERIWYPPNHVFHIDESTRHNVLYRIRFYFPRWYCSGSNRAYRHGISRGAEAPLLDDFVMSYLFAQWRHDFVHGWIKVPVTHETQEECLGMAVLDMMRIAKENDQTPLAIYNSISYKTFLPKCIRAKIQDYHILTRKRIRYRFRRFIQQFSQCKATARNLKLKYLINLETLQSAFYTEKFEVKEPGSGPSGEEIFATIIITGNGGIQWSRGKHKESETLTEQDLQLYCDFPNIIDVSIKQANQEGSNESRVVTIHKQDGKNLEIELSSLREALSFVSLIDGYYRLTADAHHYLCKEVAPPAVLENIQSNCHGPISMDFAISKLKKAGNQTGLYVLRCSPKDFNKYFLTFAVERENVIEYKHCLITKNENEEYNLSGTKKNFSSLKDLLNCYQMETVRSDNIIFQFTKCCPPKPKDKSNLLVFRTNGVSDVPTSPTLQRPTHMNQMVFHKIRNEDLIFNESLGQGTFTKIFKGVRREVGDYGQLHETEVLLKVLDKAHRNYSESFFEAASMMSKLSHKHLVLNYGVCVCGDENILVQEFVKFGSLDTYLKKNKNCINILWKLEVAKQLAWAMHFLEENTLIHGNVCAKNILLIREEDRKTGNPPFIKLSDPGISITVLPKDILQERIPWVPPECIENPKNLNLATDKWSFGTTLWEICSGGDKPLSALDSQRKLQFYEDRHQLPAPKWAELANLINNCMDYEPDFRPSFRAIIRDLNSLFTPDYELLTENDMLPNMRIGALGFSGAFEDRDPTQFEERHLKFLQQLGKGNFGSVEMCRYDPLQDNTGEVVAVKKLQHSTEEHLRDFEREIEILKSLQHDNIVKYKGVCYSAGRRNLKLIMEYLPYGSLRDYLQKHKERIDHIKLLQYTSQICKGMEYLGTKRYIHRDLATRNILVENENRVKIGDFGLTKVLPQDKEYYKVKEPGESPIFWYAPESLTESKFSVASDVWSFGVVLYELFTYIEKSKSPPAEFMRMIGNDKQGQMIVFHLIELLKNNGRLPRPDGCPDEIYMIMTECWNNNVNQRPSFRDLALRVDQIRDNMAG
Assay [2] deals with A549. The experiment in a line: Antiproliferative activity against human A549 cells.
For assay [3], the system named is MCF7. The experiment in a line: cells. To be noted: Homo sapiens.
For the next assay, the system named is Daudi. The experiment in a line: Cytotoxicity against human Daudi cells assessed as reduction in cell growth incubated for 24 hrs by MTT assay. Format: functional, cell-based. Background: Tetrazolium assays rely on reduction of a dye to a coloured formazan, in cell work by metabolically active cells.
The test system of assay [4] is MCF7. The experiment in a line: Cytotoxicity against human MCF7 cells assessed as reduction in cell growth incubated for 24 hrs by MTT assay. To be noted: MCF7, 24 h. Format: functional, cell-based.
For assay [5], the system named is A549. The experiment in a line: Cytotoxicity against human A549 cells assessed as reduction in cell growth incubated for 24 hrs by MTT assay. It counts as functional, cell-based. To be noted: A549, 24 h.
The target in another assay is T1, Histone deacetylase 8 (Homo sapiens, UniProt Q9BY41).
T1 sequence (Q9BY41 whole entry): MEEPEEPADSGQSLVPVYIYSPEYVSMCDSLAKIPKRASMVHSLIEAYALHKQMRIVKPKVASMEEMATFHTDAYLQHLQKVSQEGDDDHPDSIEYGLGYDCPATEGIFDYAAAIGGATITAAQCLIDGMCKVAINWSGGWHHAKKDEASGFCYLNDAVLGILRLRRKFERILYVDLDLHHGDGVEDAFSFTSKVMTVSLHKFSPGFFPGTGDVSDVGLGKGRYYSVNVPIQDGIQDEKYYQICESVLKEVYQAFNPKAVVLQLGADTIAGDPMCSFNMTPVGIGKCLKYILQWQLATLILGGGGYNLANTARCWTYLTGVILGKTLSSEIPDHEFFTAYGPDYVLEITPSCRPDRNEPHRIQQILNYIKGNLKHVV
The experiment in a line: Inhibition of HDAC8 (unknown origin) using R-H-K(Ac)-K(Ac)-AFC as fluoregenic substrate by fluorescence based analysis.

The subject of the next assay is MV4-11. The experiment in a line: Cytotoxicity against human MV4-11 cells assessed as reduction in cell growth incubated for 24 hrs by MTT assay. It counts as functional, cell-based. To be noted: MV4-11, 24 h.
For the next assay, the system named is SW-620. The experiment in a line: Antiproliferative activity against human SW620 cells incubated for 72 hrs by colorimetric method. Format: functional, cell-based. To be noted: SW-620, 72 h.
For another assay, the system named is NCI-H23. The experiment in a line: Antiproliferative activity against human NCI-H23 cells incubated for 72 hrs by colorimetric method. It counts as functional, cell-based. To be noted: NCI-H23, 72 h.
A further assay relates to PC-3. The experiment in a line: Antiproliferative activity against human PC-3 cells incubated for 72 hrs by colorimetric method. Format: functional, cell-based. To be noted: PC-3, 72 h.
The target of assay [6] is T2, Protein deacetylase HDAC6 (Homo sapiens, UniProt Q9UBN7).
T2 sequence (Q9UBN7 whole entry): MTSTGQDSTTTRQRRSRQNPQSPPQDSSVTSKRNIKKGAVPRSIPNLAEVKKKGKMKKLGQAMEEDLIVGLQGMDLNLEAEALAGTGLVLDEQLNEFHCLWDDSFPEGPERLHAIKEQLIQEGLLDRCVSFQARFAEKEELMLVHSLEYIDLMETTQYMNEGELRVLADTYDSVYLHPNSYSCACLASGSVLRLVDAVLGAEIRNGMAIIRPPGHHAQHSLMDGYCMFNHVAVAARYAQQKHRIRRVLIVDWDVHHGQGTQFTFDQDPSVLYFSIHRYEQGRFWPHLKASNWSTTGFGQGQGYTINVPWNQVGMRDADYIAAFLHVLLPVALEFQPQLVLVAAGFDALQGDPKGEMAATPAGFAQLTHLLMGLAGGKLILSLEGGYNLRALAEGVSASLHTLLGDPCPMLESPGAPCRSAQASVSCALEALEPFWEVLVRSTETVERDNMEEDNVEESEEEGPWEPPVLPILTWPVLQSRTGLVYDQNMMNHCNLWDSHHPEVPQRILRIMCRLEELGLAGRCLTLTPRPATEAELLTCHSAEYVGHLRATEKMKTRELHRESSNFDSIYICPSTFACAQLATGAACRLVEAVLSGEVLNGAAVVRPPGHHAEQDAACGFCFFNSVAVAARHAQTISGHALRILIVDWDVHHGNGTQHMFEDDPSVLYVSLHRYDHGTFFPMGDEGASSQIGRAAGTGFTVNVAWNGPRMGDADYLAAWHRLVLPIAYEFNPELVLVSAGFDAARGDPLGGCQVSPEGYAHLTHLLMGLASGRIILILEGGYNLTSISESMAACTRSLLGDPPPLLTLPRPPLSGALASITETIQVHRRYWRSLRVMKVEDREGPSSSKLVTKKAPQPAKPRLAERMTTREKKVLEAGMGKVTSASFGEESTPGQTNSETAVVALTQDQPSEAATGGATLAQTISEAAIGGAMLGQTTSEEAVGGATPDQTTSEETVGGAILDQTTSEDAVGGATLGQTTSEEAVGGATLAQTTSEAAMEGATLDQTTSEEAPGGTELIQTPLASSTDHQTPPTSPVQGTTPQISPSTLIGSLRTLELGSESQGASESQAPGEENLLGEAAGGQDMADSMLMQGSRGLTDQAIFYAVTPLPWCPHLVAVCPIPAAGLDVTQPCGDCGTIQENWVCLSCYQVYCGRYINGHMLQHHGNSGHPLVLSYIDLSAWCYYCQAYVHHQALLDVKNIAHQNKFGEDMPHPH
The experiment in a line: Inhibition of HDAC6 (unknown origin).

For assay [7], the system named is MCF7. The experiment in a line: Antiproliferative activity against human MCF7 cells measured after 72 hrs by MTT assay. To be noted: MCF7, 72 h. Format: functional, cell-based.
Assay [8] deals with A549. The experiment in a line: Antiproliferative activity against human A549 cells measured after 72 hrs by MTT assay. To be noted: A549, 72 h. It counts as functional, cell-based.
The test system of assay [9] is HCT-116. The experiment in a line: Antiproliferative activity against human HCT-116 cells measured after 72 hrs by MTT assay. It counts as functional, cell-based. To be noted: HCT-116, 72 h.
In another assay the test system is HeLa. The experiment in a line: Antiproliferative activity against human HeLa cells. Format: functional, cell-based.
Assay [10] has as its system HCT-116. The experiment in a line: cells. To be noted: Homo sapiens.

This passage reports IC50 results from ChEMBL document CHEMBL5614367, “Hydroxamic acid hybrids: Histone deacetylase inhibitors with anticancer therapeutic potency” (Eur J Med Chem, 2023).

Sequence of Histone deacetylase 1 (Q13547 whole entry): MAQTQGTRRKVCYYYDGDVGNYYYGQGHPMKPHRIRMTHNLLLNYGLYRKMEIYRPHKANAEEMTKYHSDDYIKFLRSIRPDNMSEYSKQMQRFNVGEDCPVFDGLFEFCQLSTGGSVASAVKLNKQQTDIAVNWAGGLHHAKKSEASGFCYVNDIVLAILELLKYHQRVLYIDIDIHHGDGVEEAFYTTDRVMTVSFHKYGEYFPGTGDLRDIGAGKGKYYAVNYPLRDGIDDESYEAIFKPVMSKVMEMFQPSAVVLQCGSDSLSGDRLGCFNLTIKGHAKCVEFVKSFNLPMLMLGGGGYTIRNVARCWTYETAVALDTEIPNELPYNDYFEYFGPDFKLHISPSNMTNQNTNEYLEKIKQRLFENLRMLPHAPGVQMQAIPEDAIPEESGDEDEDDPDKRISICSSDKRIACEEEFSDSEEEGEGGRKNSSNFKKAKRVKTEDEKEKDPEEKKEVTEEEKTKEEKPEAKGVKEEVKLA

Turning to `CC(C)(C)OC(=O)Nc1cccc(-c2cc(C(=O)NCCCCCCC(=O)NO)no2)c1`, the IC50 (usually the point on the concentration scale where inhibition reaches its midpoint) against Histone deacetylase is recorded as 5.8 nM.

For `Cc1cccc(Nc2nc(Nc3ccc(NC(=O)CCCCCCC(=O)NO)cc3)ncc2C)c1`, the IC50 against Histone deacetylase 1 came to 2.2 nM; with MDA-MB-231 it was 370 nM; with HepG2, 370 nM; with Jurkat it was 370 nM; in assay [1] it was 0.6 nM; in the assay on A549 [2], 370 nM.

`CC/C(=C(\c1ccccc1)c1ccc(OCCN(C)C)cc1)c1ccccc1` [TAMOXIFEN]: inhibition with MCF7 [3] was half-maximal at 22500 nM (IC50).

`O=C(CCCCCN1C(=O)c2ccccc2NC(=O)c2cc3ccccc3cc21)NO`: the IC50 with Daudi amounted to 93 nM; with MCF7 [4], 93 nM; with A549 [5], 93 nM; on Histone deacetylase 8, 183 nM; in the assay with MV4-11, 93 nM.

As to `O=C(NO)c1csc(NS(=O)(=O)Nc2ccccc2)n1`, the half-maximal inhibitory concentration (IC50) in the assay on SW-620, in the assay on NCI-H23 and with PC-3 was 1450 nM each time.

With `COc1cc(OCCCCCCC(=O)NO)ccc1C1c2ccc(O)cc2CCN1CC(C)(C)F` (stereo not given), the IC50 in assay [6] was 26 nM; with MCF7 [3] it was 1960 nM.

As to `CN1c2ccc(NCC3CCN(c4ncc(C(=O)NO)cn4)CC3)cc2C(=O)N2CCc3c([nH]c4ccc(O)cc34)C21` (stereo not given), the IC50 in the assay with MCF7 [3] and in the assay with A549 [2] was 230 nM throughout.

On to `COc1cc2c(Oc3ccc(NC(=O)C4(C(=O)Nc5ccc(F)cc5)CC4)cc3F)ccnc2cc1OCCCN1CCOCC1` [FORETINIB], for which the IC50 in the assay on MCF7 [7], with A549 [8] and in the assay with HCT-116 [9] was 520 nM in each case.

`COc1cccc(Nc2nc(Nc3ccc(NC(=O)CCCCCCC(=O)NO)cc3)ncc2C)c1`: the IC50 against Histone deacetylase 1 was 31.9 nM; with MDA-MB-231, 140 nM; in the assay on HepG2 it was 140 nM; in the assay on Jurkat, 140 nM; in assay [1] it was 0.5 nM; in the assay on A549 [2], 140 nM.

As for `Cc1cnc(Nc2ccc(OCCN3CCCC3)cc2)nc1Nc1cccc(S(=O)(=O)NC(C)(C)C)c1` [FEDRATINIB], the IC50 in the assay on MDA-MB-231, in the assay with HepG2, with Jurkat and in the assay on A549 [2] was 560 nM throughout.

On to `COc1cc2c(Oc3ccc(NC(=O)C4CCN(c5cccc(F)c5)C4=O)cc3)ccnc2cc1OCCCCCCC(=O)NO` (stereo not given), for which the IC50 with MCF7 [7], with A549 [8] and in the assay on HCT-116 [9] was 280 nM each time.

Turning to `COc1ccc2cc(C(=O)Oc3cccc(/C=C/C(=O)NO)c3)c(=O)oc2c1`, the IC50 in the assay with HepG2, in the assay with HeLa, in the assay on MCF7 [3] and in the assay on HCT-116 [10] was 6910 nM each time.
